# Results published in patent publication US10654866B2, “Selective estrogen receptor degraders” (Eli Lilly and Company, priority 2018, dated 2020).
# Test system: PRα (PGR) expression
# Assay: In vivo target inhibition (IVTI) assay (PGR RT-qPCR assay) in MCF7 tumors
# Set-up: species or system mice
# Details: MCF7 tumor xenograft, 30 mg/kg orally, for 24 hours
# Protocol: The purpose of this IVTI assay is to measure the ability of a test compound (SERD) to inhibit PRα gene expression (transcription) downstream of ERα in xenograft tumors implanted in mice.
# Implant female NOD SCID mice (22-25 g) from Envigo RMS, Inc., Madison, Wis. with 5×10e^6 MCF7 ER-positive breast cancer cells (ATCC, # HTB-22) subcutaneously in the right flank region in 1:1 HBSS+[…]™ solution (200 μL). Implant a 17-β estradiol pellet (0.18 mg/pellet, 90 day release, from Innovative research) subcutaneously 1 day prior to tumor cell implantation. […] Sacrifice animals using isoflurane anesthesia plus cervical dislocation. Flash freeze tumors and store at −80° C. until processing for RNA isolation and RT-qPCR assay. Collect blood in EDTA tubes, spin down for plasma, and freeze at −80° C. in a 96-well plate. Determine test compound exposures using mass spectrometry.
# Pulverize tumors in liquid nitrogen and lyse in 1×RNA lysis buffer (from RNA isolation kits) using Matrix D beads (MP Biomedical, #6913-500) in a FASTPREP-24™ Cell Disrupter machine (MP Biomedical). […] Measure isolated RNA concentration by diluting samples in RNase free water and measuring the absorbance at 260 nm on a plate reader (SpectraMax190). Subtract the average 260 nm absorbance measurement of the blank (RNase free water only) from the 260 nm measurements of all other RNA samples. […]
smiles,measurement,value
"Oc1ccc2c3c(cnc2c1)-c1ccc(C(F)(F)F)cc1OC3c1ccc(OCCN2CC(CF)C2)cc1 (single isomer, unassigned) [Example 1B, 5-(4-{2-[3-(Fluoromethyl)azetidin-1-yl]ethoxy}phenyl)-8-(trifluoromethyl)-5H-[1]benzopyrano[4,3-c]quinolin-2-ol]",inhibition of PRα (PGR) expression,~78%
